Values joined by “and” are separate entries in the source; they are usually repeats but may differ in a detail not shown here. Equal values may be shown once. Read-outs that look alike come from different tables or passages of the source.

Data set [1] deals with T1, hOX2R (Homo sapiens, UniProt O43614).
T1 sequence (O43614 1-444): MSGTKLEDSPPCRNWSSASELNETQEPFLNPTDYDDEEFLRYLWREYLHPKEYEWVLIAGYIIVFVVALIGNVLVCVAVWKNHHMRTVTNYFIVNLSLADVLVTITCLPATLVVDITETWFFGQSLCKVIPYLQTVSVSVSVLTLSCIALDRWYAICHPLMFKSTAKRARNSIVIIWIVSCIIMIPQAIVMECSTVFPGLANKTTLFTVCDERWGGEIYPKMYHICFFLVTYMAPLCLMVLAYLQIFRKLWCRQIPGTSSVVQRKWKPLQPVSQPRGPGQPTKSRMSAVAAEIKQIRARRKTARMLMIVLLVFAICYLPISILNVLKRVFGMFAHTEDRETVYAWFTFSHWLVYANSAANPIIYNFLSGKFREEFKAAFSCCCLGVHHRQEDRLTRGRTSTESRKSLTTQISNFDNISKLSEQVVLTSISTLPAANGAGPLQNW
Description: Orexin 2 receptor binding assay.

Data set [2] has as its target T2, hOX1R (Homo sapiens, UniProt O43613).
T2 sequence (O43613 1-425): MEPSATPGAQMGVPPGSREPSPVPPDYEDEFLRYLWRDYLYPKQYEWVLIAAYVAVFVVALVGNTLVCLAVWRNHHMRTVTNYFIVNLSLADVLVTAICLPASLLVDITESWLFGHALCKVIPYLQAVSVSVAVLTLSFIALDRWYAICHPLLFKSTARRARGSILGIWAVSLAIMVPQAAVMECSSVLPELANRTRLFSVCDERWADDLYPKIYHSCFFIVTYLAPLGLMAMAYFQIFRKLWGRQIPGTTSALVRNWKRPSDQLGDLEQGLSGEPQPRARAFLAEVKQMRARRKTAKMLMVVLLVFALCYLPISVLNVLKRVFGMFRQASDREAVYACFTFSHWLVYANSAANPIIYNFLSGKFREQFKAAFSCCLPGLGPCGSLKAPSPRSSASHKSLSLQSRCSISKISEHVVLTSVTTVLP
The data set can be described thus: Orexin 1 receptor binding assay.

Data set [3] can be described thus: NMR solution conformation (NOE). It is filed as physicochemical. The note with it: CD3OD at −40 °C. From the text: Although the molecular and quantum mechanical methods were in agreement with one another, we sought additional experimental methods to either support or refute our initial computational findings. We first determined the unbound, small-molecule crystal structure. The RMSD between the computationally derived conformation depicted in Fig. 1 and the X-ray structure was 0.75 Å (non-hydrogen atoms). Additionally, no differences between the geometries of the nitrogen atoms of the seven-membered ring nor the amide bond were observed between the theoretically and experimentally derived conformations. Even though there was no computed difference between the conformations (Table 1) when implicit solvent was invoked, we sought to experimentally confirm that the solution state conformation was consistent with the aforementioned theoretical and crystal structure experiments. There was again excellent agreement from NMR spectroscopy applied to compound 1, with NOE evidence for the F2F interaction in the major rotamer. In fact, two F2F rotamers in the ensemble accounted for 82 % of the total solution conformation (CD3OD at −40 °C), each with a motif similar to that found by computational analysis and X-ray structure.

Data set [4] is described as follows: Toxicology profile.
The subject of data set [5] is preclinical species. The data set can be described thus: In vivo sleep promotion.
Data set [6] is described as follows: Brain/plasma ratio, iv infusion study. Conditions: rat.
For data set [7] the following is noted: cited from earlier work.
Details of data set [8]: method as in PMID 20565075. Conditions: cited from earlier work.
[9] abbreviates: mean of replicates, read-out: OX2R Ki.
Where [10] appears, read: supplement, individual replicates, Ki and nM taken from Table 3, read-out: OX2R individual replicate.
[11] abbreviates: supplement, unlabelled mean below the replicates, Ki and nM taken from b8/Table 3, read-out: OX2R mean of replicates.
Where [12] appears, read: mean of replicates, read-out: OX1R Ki.
[13] abbreviates: supplement, individual replicates, Ki and nM taken from Table 3, read-out: OX1R individual replicate.
Setting [14] is: supplement, unlabelled mean below the replicates, Ki and nM taken from b8/Table 3, read-out: OX1R mean of replicates.

Consider `Cc1ccc(-n2nccn2)c(C(=O)N2CC3CC2CCN3c2ncc3cc(F)ccc3n2)c1` (stereo not drawn) [Compound 5], for which the Ki in data set [1] (setting [9]) is 2740 nM; in data set [1] (setting [10]) it was 2800 nM and 2280 nM and 3150 nM; in data set [1] (setting [11]), 2740 nM; in data set [2] (setting [12]), over 1700 nM. For the same molecule, the “times less active than compound 4” value in data set [2] (binding, relative to compound 4, receptor not specified) was > 1,000 times.

As to `O=C(c1cc(Cl)ccc1-n1nccn1)N1CC2CC(C1)N(c1ncc3cc(F)ccc3n1)C2` (stereo not drawn) [Compound 4], the Ki in data set [1] (setting [9]) is 0.6 nM; in data set [1] (setting [10]) it was 0.66 nM and 0.57 nM; in data set [1] (setting [11]), 0.615 nM; in data set [2] (setting [12]), 0.4 nM; in data set [2] (setting [13]), 0.43 nM and 0.42 nM; in data set [2] (setting [14]) it was 0.425 nM.

As to `Cc1ccc(-n2nccn2)c(C(=O)N2CCCN(c3ncc4ccccc4n3)CC2)c1` [Compound 1], the Ki in data set [1] (setting [9]) was 0.8 nM; in data set [1] (setting [10]), 0.773 nM and 0.86 nM and 1.01 nM and 0.775 nM and 0.811 nM and 0.65 nM and 0.64 nM and 0.61 nM and 0.57 nM and 0.606 nM and 0.41 nM and 0.72 nM and 0.754 nM and 0.866 nM and 0.905 nM and 0.731 nM and 1.31 nM and 0.954 nM and 0.71 nM; in data set [2] (setting [12]), 1.2 nM; in data set [2] (setting [13]) it was 2.2 nM and 0.71 nM and 0.58 nM and 1.3 nM and 0.94 nM and 0.62 nM and 0.54 nM and 2.4 nM and 1.4 nM; in data set [2] (setting [14]), 1.2 nM. In addition, the “share of two F2F rotamers in total solution conformation” value in data set [3] was determined as 82%.

With `Cc1ccc(-n2nccn2)c(C(=O)N2CCN(c3nc4cc(Cl)ccc4o3)CC[C@H]2C)c1` [Compound 7, Suvorexant], the toxicology profile result in data set [4] is recorded as “favorable toxicology profile”. The “sleep promotion in vivo” value in data set [5] is on record as “promote sleep in preclinical species in a dose dependent fashion”. In addition, the Kp (usually tissue or fluid exposure divided by exposure in the circulation) in data set [6] (brain and plasma, iv) lay within 0.6 to 1.2. For the same molecule, the CNS penetration entry in data set [6] (iv infusion study) is recorded as “CNS penetrant”. The metabolic issues entry in data set [7] (benzoxazole replacing quinazoline ring) is “devoid of the metabolic issues”.

`C[C@@H]1CCN(c2ncc3cc(F)ccc3n2)CCN1C(=O)c1cc(Cl)ccc1-n1nccn1` [Compound 6]: the Ki in data set [1] (setting [9]) is 0.2 nM; in data set [1] (setting [10]), 0.19 nM and 0.11 nM; in data set [1] (setting [11]), 0.15 nM; in data set [2] (setting [12]) it was 0.6 nM; in data set [2] (setting [13]) it was 0.9 nM and 0.31 nM; in data set [2] (setting [14]), 0.605 nM. Besides, the metabolic liability result in data set [7] is listed as “metabolic liability”. In addition, in data set [8], the in vivo activity result was “excellent in vivo activity”.
